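1) Cells in 96-well plates. 2) Compound, 48 h, 5 concentrations. 3) Linear interpolation between surrounding doses. 4) Unreached endpoint = highest concentration. TGI: concentration producing complete growth inhibition.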
How the values were obtained:
Test in all cases: DTP human tumour cell line panel, 48 h
NCI-H522 lung = system: NCI-H522 lung
CCRF-CEM leukemia = system: CCRF-CEM leukemia
MOLT-4 leukemia = system: MOLT-4 leukemia
LOX IMVI melanoma = system: LOX IMVI melanoma
MDA-N = system: MDA-N
RXF 393 renal = system: RXF 393 renal
SNB-19 CNS = system: SNB-19 CNS
NCI/ADR-RES ovarian = system: NCI/ADR-RES ovarian
TK-10 renal = system: TK-10 renal
SK-OV-3 ovarian = system: SK-OV-3 ovarian
UACC-257 melanoma = system: UACC-257 melanoma
OVCAR-8 ovarian = system: OVCAR-8 ovarian
A549 NSCLC = system: A549 NSCLC
PC-3 prostate = system: PC-3 prostate
SK-MEL-2 melanoma = system: SK-MEL-2 melanoma
MALME-3M melanoma = system: MALME-3M melanoma
SK-MEL-5 melanoma = system: SK-MEL-5 melanoma
HOP-92 NSCLC = system: HOP-92 NSCLC
SF-539 CNS = system: SF-539 CNS
UO-31 renal = system: UO-31 renal
ACHN renal = system: ACHN renal
COLO 205 colon = system: COLO 205 colon
NCI-H226 lung = system: NCI-H226 lung
SK-MEL-28 melanoma = system: SK-MEL-28 melanoma
IGROV1 ovarian = system: IGROV1 ovarian
UACC-62 melanoma = system: UACC-62 melanoma
M14 melanoma = system: M14 melanoma
SR leukemia = system: SR leukemia
U251 CNS = system: U251 CNS
CAKI-1 renal = system: CAKI-1 renal
786-0 renal = system: 786-0 renal
MCF7 breast = system: MCF7 breast
HT29 colon = system: HT29 colon
KM12 colon = system: KM12 colon
OVCAR-5 ovarian = system: OVCAR-5 ovarian
HCC-2998 colon = system: HCC-2998 colon
T-47D breast = system: T-47D breast
HOP-62 NSCLC = system: HOP-62 NSCLC
HS 578T breast = system: HS 578T breast
K-562 leukemia = system: K-562 leukemia
RPMI-8226 leukemia = system: RPMI-8226 leukemia
HL-60(TB) leukemia = system: HL-60(TB) leukemia
MDA-MB-435 = system: MDA-MB-435
EKVX NSCLC = system: EKVX NSCLC
SNB-75 CNS = system: SNB-75 CNS
HCT-15 colon = system: HCT-15 colon
SW-620 colon = system: SW-620 colon
HCT-116 colon = system: HCT-116 colon
SF-268 CNS = system: SF-268 CNS
BT-549 breast = system: BT-549 breast
OVCAR-4 ovarian = system: OVCAR-4 ovarian
DU-145 prostate = system: DU-145 prostate
SN12C renal = system: SN12C renal
SF-295 CNS = system: SF-295 CNS
NCI-H460 lung = system: NCI-H460 lung
MDA-MB-231 breast = system: MDA-MB-231 breast
A498 renal = system: A498 renal
OVCAR-3 ovarian = system: OVCAR-3 ovarian
NCI-H23 lung = system: NCI-H23 lung

## COc1ccc(/C=C(\C#N)c2nc3ccccc3c(=O)[nH]2)cc1
NCI-H522 lung
  TGI: 25.2 µM
CCRF-CEM leukemia
  TGI: > 100 µM
MOLT-4 leukemia
  TGI: > 100 µM
LOX IMVI melanoma
  TGI: > 100 µM
MDA-N
  TGI: > 100 µM
RXF 393 renal
  TGI: 32.3 µM
SNB-19 CNS
  TGI: 28.9 µM
NCI/ADR-RES ovarian
  TGI: 90.1 µM
TK-10 renal
  TGI: 83.8 µM
SK-OV-3 ovarian
  TGI: 23.8 µM
UACC-257 melanoma
  TGI: > 100 µM
OVCAR-8 ovarian
  TGI: 28.4 µM
A549 NSCLC
  TGI: > 100 µM
PC-3 prostate
  TGI: > 100 µM
SK-MEL-2 melanoma
  TGI: 74.7 µM
MALME-3M melanoma
  TGI: > 100 µM
SK-MEL-5 melanoma
  TGI: 57.1 µM
HOP-92 NSCLC
  TGI: 29.3 µM
SF-539 CNS
  TGI: 26.1 µM
UO-31 renal
  TGI: 72.4 µM
ACHN renal
  TGI: 42.3 µM
COLO 205 colon
  TGI: > 100 µM
NCI-H226 lung
  TGI: 84.3 µM
SK-MEL-28 melanoma
  TGI: > 100 µM
IGROV1 ovarian
  TGI: 75.1 µM
UACC-62 melanoma
  TGI: > 100 µM
M14 melanoma
  TGI: > 100 µM
SR leukemia
  TGI: > 100 µM
U251 CNS
  TGI: 33.9 µM
CAKI-1 renal
  TGI: 80.1 µM
786-0 renal
  TGI: 34.7 µM
MCF7 breast
  TGI: > 100 µM
HT29 colon
  TGI: > 100 µM
KM12 colon
  TGI: > 100 µM
OVCAR-5 ovarian
  TGI: > 100 µM
HCC-2998 colon
  TGI: > 100 µM
T-47D breast
  TGI: 75.1 µM
HOP-62 NSCLC
  TGI: 24.1 µM
HS 578T breast
  TGI: 91.6 µM
K-562 leukemia
  TGI: > 100 µM
RPMI-8226 leukemia
  TGI: > 100 µM
HL-60(TB) leukemia
  TGI: > 100 µM
MDA-MB-435
  TGI: > 100 µM
EKVX NSCLC
  TGI: > 100 µM
SNB-75 CNS
  TGI: > 100 µM
HCT-15 colon
  TGI: > 100 µM
SW-620 colon
  TGI: > 100 µM
HCT-116 colon
  TGI: 19 µM
SF-268 CNS
  TGI: 47.2 µM
BT-549 breast
  TGI: 29.7 µM
OVCAR-4 ovarian
  TGI: 70.3 µM
DU-145 prostate
  TGI: 64.6 µM
SN12C renal
  TGI: > 100 µM
SF-295 CNS
  TGI: 52.2 µM
NCI-H460 lung
  TGI: 34.4 µM
MDA-MB-231 breast
  TGI: 19.7 µM

## Oc1ccc(-c2nn3c(CCCCCCCCc4nnc5sc(-c6ccc(O)cc6)nn45)nnc3s2)cc1
NCI-H522 lung
  TGI: > 100 µM
CCRF-CEM leukemia
  TGI: > 100 µM
MOLT-4 leukemia
  TGI: > 100 µM
LOX IMVI melanoma
  TGI: > 100 µM
MDA-N
  TGI: > 100 µM
RXF 393 renal
  TGI: > 100 µM
SNB-19 CNS
  TGI: > 100 µM
A498 renal
  TGI: > 100 µM
OVCAR-3 ovarian
  TGI: > 100 µM
NCI/ADR-RES ovarian
  TGI: > 100 µM
TK-10 renal
  TGI: > 100 µM
SK-OV-3 ovarian
  TGI: > 100 µM
UACC-257 melanoma
  TGI: > 100 µM
OVCAR-8 ovarian
  TGI: > 100 µM
A549 NSCLC
  TGI: > 100 µM
PC-3 prostate
  TGI: > 100 µM
SK-MEL-2 melanoma
  TGI: > 100 µM
MALME-3M melanoma
  TGI: > 100 µM
SK-MEL-5 melanoma
  TGI: > 100 µM
HOP-92 NSCLC
  TGI: > 100 µM
SF-539 CNS
  TGI: > 100 µM
UO-31 renal
  TGI: > 100 µM
ACHN renal
  TGI: > 100 µM
COLO 205 colon
  TGI: > 100 µM
NCI-H226 lung
  TGI: > 100 µM
SK-MEL-28 melanoma
  TGI: > 100 µM
UACC-62 melanoma
  TGI: > 100 µM
M14 melanoma
  TGI: > 100 µM
SR leukemia
  TGI: > 100 µM
U251 CNS
  TGI: > 100 µM
CAKI-1 renal
  TGI: > 100 µM
786-0 renal
  TGI: > 100 µM
MCF7 breast
  TGI: > 100 µM
HT29 colon
  TGI: > 100 µM
KM12 colon
  TGI: > 100 µM
OVCAR-5 ovarian
  TGI: > 100 µM
HCC-2998 colon
  TGI: > 100 µM
T-47D breast
  TGI: > 100 µM
HOP-62 NSCLC
  TGI: > 100 µM
HS 578T breast
  TGI: > 100 µM
K-562 leukemia
  TGI: > 100 µM
RPMI-8226 leukemia
  TGI: > 100 µM
MDA-MB-435
  TGI: > 100 µM
EKVX NSCLC
  TGI: > 100 µM
SNB-75 CNS
  TGI: > 100 µM
HCT-15 colon
  TGI: > 100 µM
SW-620 colon
  TGI: > 100 µM
HCT-116 colon
  TGI: > 100 µM
SF-268 CNS
  TGI: > 100 µM
BT-549 breast
  TGI: > 100 µM
OVCAR-4 ovarian
  TGI: > 100 µM
DU-145 prostate
  TGI: > 100 µM
NCI-H23 lung
  TGI: > 100 µM
SN12C renal
  TGI: > 100 µM
SF-295 CNS
  TGI: > 100 µM
NCI-H460 lung
  TGI: > 100 µM
MDA-MB-231 breast
  TGI: > 100 µM

## CN(C)c1ccc(/C=C/c2nc3ccccc3s2)cc1
NCI-H522 lung
  TGI: > 100 µM
CCRF-CEM leukemia
  TGI: > 100 µM
MOLT-4 leukemia
  TGI: > 100 µM
LOX IMVI melanoma
  TGI: > 100 µM
MDA-N
  TGI: > 100 µM
RXF 393 renal
  TGI: > 100 µM
SNB-19 CNS
  TGI: > 100 µM
A498 renal
  TGI: > 100 µM
NCI/ADR-RES ovarian
  TGI: > 100 µM
TK-10 renal
  TGI: > 100 µM
SK-OV-3 ovarian
  TGI: > 100 µM
UACC-257 melanoma
  TGI: > 100 µM
OVCAR-8 ovarian
  TGI: > 100 µM
A549 NSCLC
  TGI: > 100 µM
PC-3 prostate
  TGI: > 100 µM
SK-MEL-2 melanoma
  TGI: > 100 µM
MALME-3M melanoma
  TGI: > 100 µM
SK-MEL-5 melanoma
  TGI: > 100 µM
HOP-92 NSCLC
  TGI: > 100 µM
SF-539 CNS
  TGI: > 100 µM
UO-31 renal
  TGI: > 100 µM
ACHN renal
  TGI: > 100 µM
COLO 205 colon
  TGI: > 100 µM
NCI-H226 lung
  TGI: > 100 µM
SK-MEL-28 melanoma
  TGI: > 100 µM
IGROV1 ovarian
  TGI: > 100 µM
M14 melanoma
  TGI: > 100 µM
SR leukemia
  TGI: > 100 µM
U251 CNS
  TGI: > 100 µM
786-0 renal
  TGI: > 100 µM
MCF7 breast
  TGI: > 100 µM
HT29 colon
  TGI: > 100 µM
KM12 colon
  TGI: > 100 µM
OVCAR-5 ovarian
  TGI: > 100 µM
HCC-2998 colon
  TGI: > 100 µM
T-47D breast
  TGI: > 100 µM
HOP-62 NSCLC
  TGI: > 100 µM
HS 578T breast
  TGI: > 100 µM
K-562 leukemia
  TGI: > 100 µM
RPMI-8226 leukemia
  TGI: > 100 µM
HL-60(TB) leukemia
  TGI: > 100 µM
MDA-MB-435
  TGI: > 100 µM
EKVX NSCLC
  TGI: > 100 µM
HCT-15 colon
  TGI: > 100 µM
SW-620 colon
  TGI: > 100 µM
HCT-116 colon
  TGI: > 100 µM
SF-268 CNS
  TGI: > 100 µM
BT-549 breast
  TGI: > 100 µM
OVCAR-4 ovarian
  TGI: > 100 µM
DU-145 prostate
  TGI: > 100 µM
NCI-H23 lung
  TGI: > 100 µM
SN12C renal
  TGI: > 100 µM
SF-295 CNS
  TGI: > 100 µM
NCI-H460 lung
  TGI: > 100 µM
MDA-MB-231 breast
  TGI: > 100 µM
